Results on four compounds are retold here after paper PMC11335710 (GeroScience, 2024).

One data set concerns 6-OHDA lesioned rats. The settings on record: rats with unilateral medial forebrain bundle 6-OHDA lesion; cited from earlier work.
The test system of data set [1] is rat primary ventral mesencephalic cultures. Description: 6-OHDA toxicity in rat primary ventral mesencephalic cultures (TH cell density). It is filed as cell-based. The settings on record: rat primary VM cultures, 6-OHDA 100 µM 2 h; for Effect of co-administered DPP-4 inhibitor on protective response of GIP and GLP-1 (TH cell density): PF-00734,200 1 µM with GLP-1 or GIP 10 nM; for Effect on 6-OHDA-mediated reduction in TH cell density: GLP-1 or GIP 10 nM, fixed 22 h after washing. The source says:
Primary cultures were generated from embryonic (E14-15) ventral mesencephalon (VM) brain tissue removed from fetuses of timed-pregnant Sprague–Dawley rats (Charles River Laboratories, Wilmington, MA), in line with published procedures with minor modifications. Briefly, the whole brain was removed aseptically, and a small piece of tissue containing the VM was separated. Blood vessels and meninges were detached, and remaining pooled VM tissues were gently trypsinized (0.25% (Invitrogen, Carlsbad, CA), 15 min at 37°C). Trypsin was removed with pre-warmed DMEM/F-12 (Invitrogen), and cells were dissociated by trituration and then counted and plated into 96-well (6.0 × 10^4/well) cell culture plates that were pre-coated with poly-D-lysine (Sigma-Aldrich). The culture plating medium was Dulbecco’s modified Eagle medium/F12 supplemented with 10% heat-inactivated fetal bovine serum, 1 mM L-glutamine, and 2% B27 (Invitrogen). VM cells were maintained at 37°C in a humidified atmosphere (5% CO2 and 95% air) and fed by exchanging 50% of media with feed media (Neurobasal medium, Invitrogen) with 0.5 mM L-glutamate and 2% B27 with antioxidants supplement on DIV (days in vitro) 3 and 5. On DIV7, VM cultures were fed with media containing B27 supplement minus antioxidants (Invitrogen). Thereafter, freshly prepared 6-OHDA (100 µM in 20 µM ascorbic acid saline solution) or saline (with 20 µM ascorbic acid) was added to the wells on DIV 10. Following 2-h incubation, cultures were washed with feed media plus ( −) AO B27 three times. DPP-4 inhibitor (PF-00734,200), incretins, or vehicle was added to the well at the last wash as a post-treatment strategy. Cells were returned to a 37°C incubator for 22 h and then fixed with 4% paraformaldehyde (PFA) for immunoreactivity evaluation.

In data set [2] the test system is SH-SY5Y human neuroblastoma cells. Put plainly: 6-OHDA-mediated cell loss in SH-SY5Y cells (TOPRO-3 cell density). The settings on record: 6-OHDA 100 µM 2 h, GLP-1 or GIP 10 nM, DPP-4 inhibitor 1 µM, read at 24 h. In kind it is cell-based.
Procedure: Five minutes later, the cells were treated with vehicle or freshly prepared 6-OHDA (100 µM) for 2 h. GIP, GLP-1, and DPP-4 inhibitor or vehicle were added to the media again after three washes. […] The cells were then washed in PBS for three times and, thereafter, were imaged using a Licor Odyssey IR scanner. Cell density in each well was analyzed by using Licor Odyssey In Cell Western analyses software v 3.0, as previously described [45].
In our study, TOPRO-3 was applied to cells after fixation with 4% PFA. The cells were washed in PBS for three times and, thereafter, were imaged using a Licor Odyssey IR scanner. Under these conditions, it is likely that any dead cells were washed away before quantifying fluorescence.
Details of data set [3]: method as in Reference 33 within 44. Conditions: Merck's data on file; ref Reference 33 within 44; cited from earlier work.
A short description of data set [4]: Plasma sitagliptin pharmacokinetics in nonhuman primates (LC-MS, noncompartmental analysis). The protocol:
Animals included Macaca mulatta of 7 to 20 kg weight, mixed gender, 12 to 19 years of age (n = 5 to 7 per group). […] Commercially prepared monkey chow was distributed twice per day along with daily food enrichment, and water was available ad libitum. Monkeys were observed daily for food consumption and overall well-being.
(§1) Immediately thereafter, an oral glucose tolerance test was performed to stimulate incretin secretion. This is designated as time zero (i.e., 0) in Figs. 2, 4 and 5.
(§2) Further samples were collected without the inhibitor for DPP-4 analysis to permit quantification of DPP-4 inhibition. Incretin levels were measured with the following assays: Active GLP-1 ((ver 2 kit) Meso Scale Diagnostic), Active GIP (ELISA kit—IBL America), DPP-4 activity was evaluated by fluorometric assay using a DPPIV/CD26 assay kit for biological samples ((BML-AK498-0001) Enzo Life Sciences, Farmingdale, NY).
A noncompartmental approach to pharmacokinetic analysis was employed using Phoenix WinNonlin v8.3 (Certara Corp, Cary, NC). The maximum plasma concentration (Cmax) and the time of maximum plasma concentration (Tmax) were recorded as observed values. […] AUCINF (the AUC from time zero to infinity) was calculated by extrapolation by dividing Clast (the last measurable drug concentration) by the rate constant of the terminal phase, lZ (Kel). This constant was determined from the slope of the terminal phase of the concentration–time curve using uniformly weighted least squares as the estimation procedure and acceptance criteria of (i) adjusted r^2 > 0.8 and (ii) includes > 3 time points in the terminal phase.

In a further data set the test system is p-glycoprotein. The settings on record: in relation to renal clearance; cited from earlier work.
The nature of the next data set: in vivo. Conditions: both, Macaca mulatta.
The conditions of data set [5]: cited from earlier work.
Data set [6] concerns organic anion transporter 3 (hOAT3). The settings on record: in relation to renal clearance; cited from earlier work.
Another data set deals with GLP-1 and GIP. Put plainly: CSF GLP-1 and GIP levels in NHPs (both incretins, summary in text). It is filed as in vivo, Macaca mulatta. Conditions: CSF at 3 and 5 h after day 6 sitagliptin, NHP. The method, then:
as §1, §2

The mark [7] stands for this setting: both, rhesus monkey, in vivo, po, 5 mg/kg.
Where [8] appears, read: both, rhesus monkey, in vivo, po, 20 mg/kg.
Setting [9] is: both, rhesus monkey, in vivo, po, 100 mg/kg.

Entries after “also recorded” stand apart in the source; their conditions may differ. Ends that are not written are not given here.

As for `O=C([C@@H]1C[C@H](N2CCN(c3ncccn3)CC2)CN1)N1CCC(F)(F)C1` [PF-00734,200, gosogliptin], in the data set on 6-OHDA lesioned rats, the “Effect on dopaminergic neurons, dopamine levels and methamphetamine-mediated rotation” value was “mitigated the loss of dopaminergic neurons and dopamine levels”. The results for the “Effect of co-administered DPP-4 inhibitor on protective response of GIP and GLP-1 (TH cell density)” value in data set [1] and in data set [1] (listed as DPP-4I) were “significantly potentiated” and “further reduced”, respectively. Further, the results for the “Effect on 6-OHDA-mediated cell loss (TOPRO-3 fluorescence cell density)” value (from here on “Effect on 6-OHDA-mediated cell loss”) in data set [2] (listed as DPP-4I) and in data set [2] (listed as DPP-4 inhibitor) were “ameliorated” and “partially mitigated”, respectively.

Take `N[C@@H](CC(=O)N1CCn2c(nnc2C(F)(F)F)C1)Cc1cc(F)c(F)cc1F` [sitagliptin]: the “Effect on dopaminergic neurons, dopamine levels and methamphetamine-mediated rotation” value in the data set with 6-OHDA lesioned rats is “mitigated the loss of dopaminergic neurons and dopamine levels”. In addition, in data set [3], the “Maximally well-tolerated sitagliptin dose in NHPs” value is listed as 100 mg/kg. Besides, in data set [4] (20 mg/kg oral once daily, day 6, NHP plasma), the time of peak concentration (Tmax) came out at 2 h. In data set [4] (both, Macaca mulatta, in vivo, po), the Tmax is 2 h. Moreover, in [4] (setting [7]), the AUC(0-inf) came to 8.81 µM·h, the area under the curve AUC(0-t) came out at 7.83 µM·h, the Cmax was 0.768 µM and the half-life turned out to be 8.4 h. This compound gave a k el in data set [4] (setting [7]) of 2.28e-05 s⁻¹. For the same compound, in [4] (setting [8]), the total exposure AUC(0-inf) turned out to be 50.9 µM·h, the AUC(0-t) amounted to 49.6 µM·h, the Cmax was found to be 7.06 µM and the half-life was found to be 5 h. In data set [4] (setting [8]), this compound had a k el of 3.87e-05 s⁻¹. Besides, in data set [4] (setting [9]), the AUC(0-inf) came out at 214 µM·h, the AUC(0-t) stood at 193 µM·h, the peak level (Cmax) was 13.7 µM and the time of peak concentration (Tmax) lay in the range of 2 to 8 h. In [4] (setting [9]), this compound had a half-life of 6.7 h and a k el of 2.85e-05 s⁻¹. This compound also yielded a Cmax in data set [4] (both, rhesus, Macaca mulatta, in vivo, po, 5 mg/kg) of 0.768 µM. Besides, the Substrate for p-glycoprotein result with p-glycoprotein was “substrate”. In “in vivo”, the Kp at 3 h is 0.01 and the Kp at 5 h was found to be 0.01. Further, in [5], the “log P” value is recorded as 1.5. Further, the “Substrate for organic anion transporter 3 (hOAT3)” value in [6] was “substrate”. In addition, the “Elevation of CSF levels of GLP-1 and GIP vs placebo” value with GLP-1 and GIP was 2.0- to 3.4 fold.

In the case of “glucagon-like peptide-1 (HAEGTFTSDVSSYLEGQAAKEFIAWLVKGR; ends and bridges not checked; UniProt P01275 98-127, looked up) [GLP-1, endogenous incretin hormone added to cultures at 10 nM]”, the results for the “Effect on 6-OHDA-mediated reduction in TH cell density” value in data set [1] and in data set [1] (listed as GLP‐1) were “partially but significantly mitigated” and “significant amelioration”, respectively. In [2], the “Effect on 6-OHDA-mediated cell loss” value is reported as “partially mitigated; also recorded: ameliorated”.

With “glucose-dependent insulinotropic polypeptide [GIP]”, the “Effect on 6-OHDA-mediated reduction in TH cell density” value in data set [1] is “partially but significantly mitigated; also recorded: significant amelioration”. Besides, the “Effect on 6-OHDA-mediated cell loss” value in data set [2] is “significantly antagonized; also recorded: ameliorated; also recorded: fully protected against cell loss”.

By Tmax is commonly meant the time from dosing to the highest level. Usually AUC(0-inf) stands for the area under the concentration-time curve extrapolated to infinity. The low end stands for low exposure, the high end for high exposure. One may read the AUC(0-t) as the area under the concentration-time curve up to a stated or last time point. The low end stands for low exposure, the high end for high exposure. Broadly, the Cmax is the maximum level reached in the sampled fluid or tissue. As a reminder, the half-life is the time in which the quantity being followed falls by half. Read a high half-life as slow decline. In general, log P refers to a log measure of how a compound divides between an organic and an aqueous phase.
